# Experimental data from patent US20200172913A1, “PEPTIDES AND NANOPARTICLES FOR INTRACELLULAR DELIVERY OF VIRUS” (priority 2017, published 2020).
# Where two headings read alike, the source gives them in different places.
# Tests used:
# HCN2 cells [1] = experiment: AAV-6-GFP transduction with CPPs, flow cytometry; format: cell-based, human
# Description: (§1) In this example different AAV serotypes including AAV 1, AAV2, AAV5, AAV6, AAV8 and AAV9 were tested against human hepatocytes (HepG2) and human neuronal cells (HCN2) in the presence or in the absence of CPPs including ADGN-103a, ADGN-103b, ADGN-100, ADGN-109, ADGN-106, PEP-1, PEP-2, CADY, and TAT-HA2.
# (§2) AAV-1, AAV-2, AAV-5, and AAV-6 viruses encoding green fluorescent protein were obtained from Cell Biolabs Inc and AAV-8 from Vector Biolabs. Stock solutions of virus were obtained at 1χ10^13 GC/ml in PBS/0.01% and diluted 50-fold to 2×10^11 GC/ml before use.
# (§3) AAV-1, AAV-2, AAV-5, and AAV6 encoding green fluorescent protein were used at low MOI of 500 (1-2×10^7 PFU) and AAV-8 at MOI of 1000 (2-4×10^7 PFU). HepG2 and HCN2 cells (1 10^6 cells per well) were cultured in a 24 well plate culture dish format. For MOI of 1000, 5 μl of AAV virus diluted solutions were preincubated in PBS with increasing concentration of CPPs ranging from 0.1 to 200 μM for 30 min. For MOI of 500, 2.5 μl of AAV virus diluted solutions were preincubated in PBS with increasing concentration of CPPs ranging from 0.1 to 200 μM for 30 min. 200 μl of AAV or CPP/AAV complex solutions were added to cultured cells (1×10^6 cells per well). Cells are treated with either free AAV or CPP/AAV complexes for 4 h. and then the medium is replaced with fresh medium.
# (§4) Viral mediated transgene expression was monitored by flow cytomety 2 days post-infection in HepG2 and Human neuronal HCN2. The percentage of GFP expressing cells were detected by flow cytometry and the increase of AAV infectivity was calculated based on the number of GFP-positive cells. Results are reported in FIGS. 5A-5D, 6A-6D, 7A-7D, 8A-8D, and 9A-9D.
# HepG2 cells [2] = experiment: AAV-6-GFP transduction with CPPs, flow cytometry; format: cell-based, human; settings: 200 μM CPP
# Description: as §1, §2, §3, §4
# HepG2 cells [3] = settings: AAV-2, HepG2, Liu et al., cited from earlier work
# HCN2 cells [4] = experiment: AAV-1-GFP transduction with CPPs, flow cytometry; format: cell-based, human; settings: 200 μM CPP
# Description: as §1, §2, §3, §4
# HepG2 cells [5] = experiment: AAV-1-GFP transduction with CPPs, flow cytometry; format: cell-based, human; settings: 200 μM CPP, AAV-1 MOI of 500, HepG2; 5% in the absence of CPP
# Description: as §1, §2, §3, §4
# HCN2 cells [6] = experiment: AAV-5-GFP transduction with CPPs, flow cytometry; format: cell-based, human; settings: 200 μM CPP
# Description: as §1, §2, §3, §4
# HepG2 cells [7] = experiment: AAV-5-GFP transduction with CPPs, flow cytometry; format: cell-based, human; settings: 200 μM CPP
# Description: as §1, §2, §3, §4
# HCN2 cells [8] = experiment: AAV-2-GFP transduction with CPPs, flow cytometry; format: cell-based, human; settings: 200 μM CPP
# Description: as §1, §2, §3, §4
# HepG2 cells [9] = experiment: AAV-2-GFP transduction with CPPs, flow cytometry; format: cell-based, human; settings: 200 μM CPP
# Description: as §1, §2, §3, §4
# HCN2 cells [10] = experiment: AAV-8-GFP transduction with CPPs, flow cytometry; format: cell-based, human; settings: 200 μM CPP, AAV-8 MOI of 1000, HCN2; 5% in the absence of CPP
# Description: as §1, §2, §3, §4
# HepG2 cells [11] = experiment: AAV-8-GFP transduction with CPPs, flow cytometry; format: cell-based, human; settings: 200 μM CPP, AAV-8 MOI of 1000, HepG2; 5% in the absence of CPP
# Description: as §1, §2, §3, §4
# HepG2 cells [12] = experiment: AAV-2 transfection of HepG2 cells with TAT-HA2 or LAH4 peptides (Liu et al., Molecular Therapy, 2014); format: cell-based, human; settings: 200 μM, GFP-positive cells
sequence,measurement,setting,value
"CRRRQRRKKRGGDIMGEWGNEIFGAIAGFLG [TAT-HA2, reference compound]",increase of AAV-6 efficiency,"HCN2 cells [1]; 200 μM CPP, MOI of 500, HCN2",3 fold
same,cells expressing GFP,"HCN2 cells [1]; 200 μM of CPP, AAV-6 MOI of 500, HCN2, 4% in the absence of CPP",22%
same,cells expressing GFP,"HepG2 cells [2]; AAV-6 MOI of 500, HepG2, 5% in the absence of CPP",35%
same,increase of AAV-6 efficiency,"HepG2 cells [2]; MOI of 500, HepG2",about 10 fold
same,GFP-positive cells,HepG2 cells [3]; 200 μM concentration of peptide,about 25%
same,GFP-positive cells,HepG2 cells [3]; concentration of CPPs,12%
same,cells expressing GFP,"HCN2 cells [4]; AAV-1 MOI of 500, HCN2, 5% in the absence of CPP",22%
same,increase of AAV-1 efficiency,"HCN2 cells [4]; MOI of 500, HCN2",3 fold
same,cells expressing GFP,HepG2 cells [5],27%
same,cells expressing GFP,"HCN2 cells [6]; AAV-5 MOI of 500, HCN2, 5% in the absence of CPP",10%
same,increase of AAV-5 efficiency,"HCN2 cells [6]; MOI of 500, HCN2",2 fold
same,cells expressing GFP,"HepG2 cells [7]; AAV-5 MOI of 500, HepG2, 5% in the absence of CPP",11%
same,increase of AAV-5 efficiency,"HepG2 cells [7]; MOI of 500, HepG2",3 fold
same,cells expressing GFP,"HCN2 cells [8]; AAV-2 MOI of 500, HCN2, 4% in the absence of CPP",20%
same,increase of AAV-2 efficiency,"HCN2 cells [8]; MOI of 500, HCN2",3 fold
same,cells expressing GFP,"HepG2 cells [9]; AAV-2 MOI of 500, HepG2, 4% in the absence of CPP",23%
same,increase of AAV-2 efficiency,"HepG2 cells [9]; MOI of 500, HepG2",5 fold
same,cells expressing GFP,HCN2 cells [10],12%
same,cells expressing GFP,HepG2 cells [11],15%
same,fold lower than the results obtained with the ADGN peptides,HepG2 cells [12],4 fold
